Laboratory results: US20050148534A1, “Small molecule compositions and methods for increasing drug efficiency using compositions thereof” (priority 2003, published 2005)
Read-outs that look alike come from different tables or passages of the source.

Tests used:
[1] = target: T1, Human thymidine kinase 1 (TK1) (Homo sapiens, UniProt P04183); test: Thymidine kinase coupled (kinetic) ATP depletion assay; type: biochemical; conditions: initial velocity relative to thymidine; 100 μM conjugate
T1 construct: His tag (from pET28b(+)) (N); made in house; host or cells: E. coli BL21-codon plus
T1 sequence (P04183 1-234): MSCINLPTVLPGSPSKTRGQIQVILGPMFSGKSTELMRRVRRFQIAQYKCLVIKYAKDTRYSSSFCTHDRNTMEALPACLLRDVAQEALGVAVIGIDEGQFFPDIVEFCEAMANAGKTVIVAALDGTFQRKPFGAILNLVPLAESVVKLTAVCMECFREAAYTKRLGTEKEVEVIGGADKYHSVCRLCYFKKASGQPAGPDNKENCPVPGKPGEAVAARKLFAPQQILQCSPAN
Experimental: Thymidine kinase, viral thymidine kinase, TK-1 deoxycytidine kinase, and deoxyguanosine kinase activities are determined by subjecting a first end of a linker used in synthesizing linker-substrate constructs to a first test. The first test may involve observing ADP formation, an obligatory co-product of phospho group transfer from ATP which is catalyzed by the kinase to the C5′ hydroxyl group or its equivalent in the nucleoside or nucleoside analog. Formation of ADP is followed by a coupled enzyme assay well known in the art. ADP, formed from kinase phosphorylation, is used by pyruvate kinase to generate pyruvate from phosphoenolpyruvate which in turn is converted to lactate by lactate dehydrogenase. The lactate results in the consumption of NADH which is followed spectrophotometrically. The rate of nucleoside phosphorylation is then directly related to the rate of decrease in the observed NADH signal.
TK1 was amplified using PCR with forward primer 5′-[…]-3′ and reverse primer 5′-[…]-3′. The PCR product was digested with Nde I and Hind III. An N-terminal His-tagged TK1 construct, TK1/pET28b(+), was generated by subcloning TK1 into the Nde I and Hind III sites of prokaryotic expression vector pET28b (+) (Novagen, San Diego, Calif.). TK1 was expressed from TK1/pET28b(+) using E. coli strain BL21-codon plus (Stratagene, San Diego, Calif.) and purified by Ni column chromatography.
A coupled (kinetic) ATP depletion assay was developed to measure thymidine kinase activity. The reaction contained 100 mM Tris HCl, pH 7.5, 20 mM MgCl2, 100 mM KCl, 0.4 mM PEP, 0.2 mM NADH, Pyruvate Kinase (0.7 units)/Lactate Dehydrogenase (1.0 unit) (Sigma #PO294), 2.5-10 μg Thymidine Kinase, 100 μM thymidine or thymidine-drug conjugate in a volume of 75 μl. ATP (5 mM in 25 μl H2O) was added to initiate the reaction and the velocity of ATP depletion was monitored at 340 nm continuously for 15 minutes.

[2] = test system: MCF-7 breast carcinoma; test: Cytotoxicity assay (soft agar), MCF-7; conditions: Homo sapiens
[3] = test system: MCF-7 breast carcinoma; test: Cytotoxicity assay (monolayer), MCF-7; type: cell-based; conditions: Homo sapiens, MCF7
Experimental: (§1) Statistical Assoc., 81, 991-999, 1986.
(§2) Monolayer assays with tumor cell lines (MCF-7 breast carcinoma and HT-29 colorectal carcinoma from ATCC) were carried out in triplicate in 96-well plates with RPMI1640 medium containing 5% fetal bovine serum, 100 U/ml penicillin and 100 μg/ml streptomycin. Normal human foreskin fibroblasts (HFF #CC-2509) were from Cambrex and were cultured in FGM-2 medium. Exponentially growing cells (5,000 MCF-7 or HT-29; 1,500 HFF) were plated in 100 μl medium and incubated overnight (5% CO2, 37° C.). Compounds (20 pM to 20 μM final concentration, 6-8 doses) and vehicle (DMSO) controls were added and the incubation was continued for an additional 72 hours. Final cell density was determined by incubating cultures with 25 μl AlamarBlue reagent (BioSource, Camarillo, Calif.) for 4 hours, followed by determination of fluorescence at excitation of 544 nm and emission of 590 nm with a SpectroMax Gemini EM fluorescence plate reader (Molecular Devices, Sunnyvale, Calif.). EC50 values were generated from dose-response curves by a 4-parameter method using Softmax PRO software. Mean EC50s (±SD) represent the average of all tests carried out for all lots of a given compound. […] Statistical Assoc., 81, 991-999 (1986).

[4] = test system: HUVEC; test: Cytotoxicity assay (monolayer), HUVEC; type: cell-based; conditions: Homo sapiens, read-out: HUVEC (EC50 Ave) ML
[5] = test system: Normal human foreskin fibroblasts (HFF); test: Cytotoxicity assay (monolayer), HFF; type: cell-based; conditions: Fibroblast
Experimental: as §1, §2

[6] = Serum stability in RPMI1640 medium containing 10% fetal bovine serum; type: in vitro ADME
Experimental: The stability of conjugates was measured in RPMI1640 cell culture medium containing 10% fetal bovine serum. The serum-containing medium was pre-warmed at 37° C. for 3 min prior to addition of test articles. Test articles, prepared in DMSO as 5 mM stocks, were added to the cell culture media to a final concentration of […]. Aliquots ([…]) were withdrawn in triplicate at 0, 4, 8, 24 and 72 hours and combined with the same volume of ice-cold acetonitrile to terminate the reaction. The mixture was centrifuged at 2,000×g for 10 minutes. One part of the supernatant was mixed with four parts of deionized water to bring down the percentage of organic solvent. The diluted samples were then assayed by LC/MS for the test article. The natural log of the percent remaining was plotted versus time. A linear fit was used to determine the rate constant. The fit was truncated after the percent of remaining test article was less than 10%. The elimination half-lives associated with the disappearance of test articles were determined to compare their relative stability. The assays were carried out by Absorption Systems (Exton, Pa.).

[7] = test system: HT-29 colorectal carcinoma; test: Cytotoxicity assay (monolayer), HT-29; type: cell-based; conditions: Homo sapiens
Experimental: as §1, §2

[8] = test system: tubulin; test: Fluorescence-based microtubule polymerization assay (MPA); type: biochemical; conditions: mean percentage of paclitaxel or vinblastine activity; 0.75-10 micromolar
In short: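 Tubulin polymerization was followed by fluorescence (ex 360/em 405 nm) in a commercial kit with 1 mg/ml BSA added to every assay, glycerol being omitted for paclitaxel conjugates. Parent drugs and conjugates were tested at 0.75, 1.5, 3 and 10 micromolar final. Curves from the linear range of the dose responses were compared.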

[9] = test system: HT-29 colorectal carcinoma; test: Cytotoxicity assay (soft agar), HT-29; conditions: Homo sapiens
[10] = test system: MCF7; test: Cytotoxicity assay, MCF7 SSA (SSA not explained); type: cell-based; conditions: Homo sapiens
[11] = test system: breast carcinoma, colon carcinoma and leukemia; test: Cytotoxicity of drug-thymidine conjugates (Example 22); type: cell-based
[12] = test system: HT29; test: Cytotoxicity assay, HT29 SSA (SSA not explained); type: cell-based; conditions: Homo sapiens, HT-29; read-out: HT29 (EC50 Ave) SSA
[13] = target: T2, Topoisomerase II (Homo sapiens, UniProt P11388); test: Topoisomerase II assay; type: biochemical; conditions: doxorubicin and its conjugates; percent activity of Doxorubicin
T2 construct: purchased TopoGEN Inc. (Columbus, Ohio) 1009-1
T2 sequence (P11388 whole entry): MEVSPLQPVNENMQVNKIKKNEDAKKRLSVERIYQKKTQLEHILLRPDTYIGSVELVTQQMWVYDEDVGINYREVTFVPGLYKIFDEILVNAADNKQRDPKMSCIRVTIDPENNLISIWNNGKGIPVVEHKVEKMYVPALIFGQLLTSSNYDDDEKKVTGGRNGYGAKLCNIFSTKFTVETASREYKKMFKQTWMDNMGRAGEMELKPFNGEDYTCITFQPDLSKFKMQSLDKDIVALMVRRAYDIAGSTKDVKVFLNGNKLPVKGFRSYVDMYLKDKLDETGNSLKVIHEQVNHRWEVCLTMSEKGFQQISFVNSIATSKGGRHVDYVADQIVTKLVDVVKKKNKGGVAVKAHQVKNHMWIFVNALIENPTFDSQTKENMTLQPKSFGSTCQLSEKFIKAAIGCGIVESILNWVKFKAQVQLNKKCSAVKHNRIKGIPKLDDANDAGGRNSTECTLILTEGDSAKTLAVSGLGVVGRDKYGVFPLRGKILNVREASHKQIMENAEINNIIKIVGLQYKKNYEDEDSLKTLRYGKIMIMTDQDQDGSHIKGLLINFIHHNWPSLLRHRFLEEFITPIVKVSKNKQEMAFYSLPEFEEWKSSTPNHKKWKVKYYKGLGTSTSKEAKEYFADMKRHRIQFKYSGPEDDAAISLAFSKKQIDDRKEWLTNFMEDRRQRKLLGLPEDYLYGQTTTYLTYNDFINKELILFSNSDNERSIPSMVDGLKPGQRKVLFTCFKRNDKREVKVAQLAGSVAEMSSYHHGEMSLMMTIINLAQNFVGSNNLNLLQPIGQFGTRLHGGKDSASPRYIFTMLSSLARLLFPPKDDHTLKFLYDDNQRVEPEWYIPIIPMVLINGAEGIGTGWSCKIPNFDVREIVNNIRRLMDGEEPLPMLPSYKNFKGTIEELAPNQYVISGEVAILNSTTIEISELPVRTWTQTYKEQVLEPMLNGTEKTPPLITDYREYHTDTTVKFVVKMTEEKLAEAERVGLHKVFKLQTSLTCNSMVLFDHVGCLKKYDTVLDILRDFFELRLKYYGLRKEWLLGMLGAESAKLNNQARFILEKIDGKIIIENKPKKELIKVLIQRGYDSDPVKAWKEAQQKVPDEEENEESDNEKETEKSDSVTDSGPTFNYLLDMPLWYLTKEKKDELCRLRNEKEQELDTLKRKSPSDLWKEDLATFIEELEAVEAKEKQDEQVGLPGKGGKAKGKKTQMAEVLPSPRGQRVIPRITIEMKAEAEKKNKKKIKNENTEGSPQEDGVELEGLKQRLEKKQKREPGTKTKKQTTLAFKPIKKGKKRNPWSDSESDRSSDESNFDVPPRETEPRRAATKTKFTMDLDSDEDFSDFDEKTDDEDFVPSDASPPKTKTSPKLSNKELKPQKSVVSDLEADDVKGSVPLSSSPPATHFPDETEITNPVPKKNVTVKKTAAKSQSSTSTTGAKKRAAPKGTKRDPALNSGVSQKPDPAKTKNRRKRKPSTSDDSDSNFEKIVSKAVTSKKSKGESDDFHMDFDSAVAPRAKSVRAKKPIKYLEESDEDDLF
Experimental: In certain embodiments, activity of doxorubicin conjugates was assayed by monitoring alteration in the ability of Topoisomerase II, by electrophoresis, to catalyze the formation of relaxed conformation DNA from a super-coiled plasmid.
Specifically the kit was used to assay whether Doxorubicin conjugates altered the ability of Topoisomerase II to catalyze the formation of relaxed conformation DNA from a super-coiled plasmid. Doxorubicin conjugates were compared directly to Doxorubicin at 10, 3, 1, 0.3, 0.1 and 0.03 micromolar concentrations. The quantity of relaxed conformation DNA was quantified from an agarose gel on which is it is separated from the super-coiled DNA by standard electrophoresis. […] The results are presented in terms of percent activity of Doxorubicin.

[14] = MCF7, read-out: MCF7 (EC50 Ave) SA
[15] = monolayer, 72 hours, AlamarBlue, read-out: MCF7 (EC50 Ave) ML
[16] = monolayer, 72 hours, AlamarBlue, read-out: HFF (EC50 Ave) ML
[17] = monolayer, 72 hours, AlamarBlue, read-out: HT29 (EC50 Ave) ML
[18] = HT-29, read-out: HT29 (EC50 Ave) SA

SMILES	Ave. TK1 Kinase Act. [1]	EC50 [2, 14] [nM]	EC50 [3, 15] [nM]	EC50 [4] [nM]	EC50 [5, 16] [nM]	EC50 [7, 17] [nM]	Ave. MPA Act [8]	EC50 [9, 18] [nM]	EC50 [10] [nM]	EC50 [12] [nM]	Ave. MPA Act (doxorubicin) [13]	other results
CC(=O)O[C@H]1C(=O)C2(C)[C@@H](OC(=O)NCCCCCCn3c(=O)c(C)cn([C@H]4CC(O)[C@@H](CO)O4)c3=O)CC3OC[C@]3(OC(C)=O)[C@H]2[C@H](OC(=O)c2ccccc2)[C@]2(O)C[C@H](OC(=O)[C@H](O)[C@@H](NC(=O)c3ccccc3)c3ccccc3)C(C)=C1C2(C)C (stereo partly shown) [PXL-7Ca-ALK(6)-N3-THY]	A (A<20)	< 100	< 100	100 to 1000	100 to 1000	100 to 1000	B (B=60-100)	100 to 1000				EC50 ([2]; MCF7, read-out: MCF-7 Soft Agar EC50): 40 ± 41 nM; EC50 ([3]; mean ± SD, read-out: MCF-7 Monolayer EC50): 120 ± 73 nM; EC50 ([5]; mean ± SD, read-out: HFF Monolayer EC50): 457 ± 310 nM; Relative Percent Remaining at 0 hr ([6]; 37° C., medium with 10% fetal bovine serum, 0 hr): 100%; Relative Percent Remaining at 4 hr ([6]; 37° C., medium with 10% fetal bovine serum, 4 hr): 84%; Relative Percent Remaining at 8 hr ([6]; 37° C., medium with 10% fetal bovine serum, 8 hr): 90%; Relative Percent Remaining at 24 hr ([6]; 37° C., medium with 10% fetal bovine serum, 24 hr): 80%; Relative Percent Remaining at 72 hr ([6]; 37° C., medium with 10% fetal bovine serum, 72 hr): 38%; half-life ([6]; bovine, serum): 55 h; EC50 ([7]; mean ± SD, read-out: HT-29 Monolayer EC50): 258 ± 129 nM; EC50 ([9]; HT-29, read-out: HT-29 Soft Agar EC50): 120 ± 4 nM
CC[C@]1(O)C[C@@H]2CN(CCc3c([nH]c4ccccc34)[C@@](C(=O)OC)(c3cc4c(cc3OC)N(C)[C@H]3[C@@](O)(C(=O)OC)[C@H](OC(C)=O)[C@]5(CC)C=CCN6CC[C@]43[C@@H]65)C2)C1 [Vinblastine]	A (A<20)	< 100	< 100		< 100	< 100	C (C>100)	< 100	< 100	< 100		EC50 [11]: 1 to 2 nM
CC[C@]1(O)CC2CN(CCc3c([nH]c4ccccc34)[C@@](C(=O)OC)(c3cc4c(cc3OC)N(C)[C@H]3C(O)(C(=O)NCCOCCOCCOCCN)[C@H](O)[C@]5(CC)C=CCN6CCC43[C@@H]65)C2)C1 (stereo partly shown) [VBL-3Am-PEG(11)-NH2, deacetylvinblastine-3-(amido-PEG-amine)]		< 100	100 to 1000	< 100	< 100	100 to 1000	B (B=60-100)	< 100	< 100	< 100		
COc1cccc2c1C(=O)c1c(O)c3c(c(O)c1C2=O)C[C@@](O)(C(=O)CO)C[C@@H]3O[C@H]1C[C@H](N)[C@H](O)[C@H](C)O1 [Doxorubicin]	A (A<20)		< 100	< 100	< 100	100 to 1000					C (C>100)	
COc1cccc2c1C(=O)c1c(O)c3c(c(O)c1C2=O)C[C@@](O)(C(=O)CO)C[C@@H]3OC1CC(NCCCN2C(=O)CC(SCCC(=O)NCCCCCCn3c(=O)c(C)cn([C@H]4CC(O)[C@@H](CO)O4)c3=O)C2=O)C(O)C(C)O1 (stereo partly shown) [DOX-3′ALK-MALa(17)-N3-THY]	A (A<20)		> 1000	> 1000	> 1000						A (A<60)	
